Data published in patent publication US7790143B2, “Vaccines for immunization against helicobacter” (priority 2005, dated 2010).

Assays:
Design in all cases: key: R: resistant; S: susceptible; I: intermediate
H. pylori = details: 30 μg; taxon 6 H. pylori; cited from earlier work
H. aurati = details: 30 μg; taxon 13 H. aurati; cited from earlier work
H. trogontum = details: 30 μg; taxon 9 H. trogontum; cited from earlier work
H. acinonychis = details: 30 μg; taxon 7 H. acinonychis; cited from earlier work
H. salomonis = details: 30 μg; taxon 5 H. salomonis; cited from earlier work
H. nemestrinae = details: 30 μg; taxon 11 H. nemestrinae; cited from earlier work
H. bizzozeronii = details: 30 μg; taxon 3 H. bizzozeronii; cited from earlier work
H. baculiformis M50T = experiment: Susceptibility to antimicrobials (30 μg); type: cell-based; details: taxon 1 H. baculiformis (this study)
Excerpt: Data were obtained from Bronsdon et al. (1991), Dewhirst et al. (2000a), Eaton et al. (1993), Fox et al. (1988, 1995), Hänninen et al. (1996, 2005), Jalava et al. (1997) Int J Syst Bacteriol 47, 975-982, Lee et al. (1988, Infect Immun 56, 2843-2850, 1992), Mendes et al. (1996); Patterson et al. (2000), Van den Buick et al. (2006, Int J Syst Evol Microbiol 56, 1559-1564).

H. bilis = details: 30 μg; taxon 8 H. bilis; cited from earlier work
H. mustelae = details: 30 μg; taxon 10 H. mustelae; cited from earlier work
H. muridarum = details: 30 μg; taxon 12 H. muridarum; cited from earlier work
H. felis = details: 30 μg; taxon 4 H. felis; cited from earlier work

Measured: Susceptibility to

CC(=O)OCC1=C(C(=O)O)N2C(=O)[C@@H](NC(=O)Cc3cccs3)[C@H]2SC1 [Cephalothin]
R: H. aurati | H. trogontum | H. baculiformis M50T | H. bilis | H. mustelae | H. muridarum
S: all other assays above

CCn1cc(C(=O)O)c(=O)c2ccc(C)nc21 [Nalidixic acid]
I: H. baculiformis M50T
S: H. aurati | H. mustelae
R: all other assays above
